Source: patent US9518060B2, “Substituted pyrrolo[3,4-c]pyrazoles as PKC kinase inhibitors” (PFIZER INC., priority 2007, dated 2016)
pKi: −log10 of the molar value.

Target: Protein Kinase C beta 2 (PKCβII) (Homo sapiens (Human), UniProt P05771)
Assay: PKCβII coupled spectrophotometric kinase assay (PK/LDH, NADH absorbance at 340 nm)
Format: biochemical
Conditions: apparent Ki, ATP competitive inhibition model (Morrison equation); 0.1 mM ATP, 5 nM PKC, 30° C.; read-out: Ki app
Experimental: Protein Kinase C beta 2 (PKCβII) catalyzes the production of ADP from ATP that accompanies the phosphoryl transfer to the PKC Pseudosubstrate peptide (A→S, RFARKGSLRQKNV). This transfer is coupled to the oxidation of β-NADH through the activities of Pyruvate Kinase (PK) and Lactate Dehydrogenase (LDH). β-NADH conversion to NAD+ is monitored by the decrease in absorbance at 340 nm (e=6.22 cm^−1 mM^−1) using a Molecular Devices SPECTRA max PLUS spectrophotometer.
A typical assay was carried out on a 96-well, clear microtiter plate in a Molecular Devices spectrophotometer for 20 minutes at 30° C. in 0.1 mL of assay buffer containing 50 mM HEPES, pH 7.4, 5 nM PKC, 23 units of pyruvate kinase, 33 units of lactate dehydrogenase, 0.15 mM peptide, 0.1 mM ATP, 1 mM DTT, 4 mM PEP, 8 mM MgCl2, 0.3 mM NADH, 60 mM CaCl2, 10 mg/mL PS, 50 ng/mL PMA, 7.5% DMSO and from about 10,000 nM to 0.169 nM compound inhibitor. Stock solutions of 3-sn-phosphatidyl-L-serine (PS) and phorbol-12-myristate-13-acetate (PMA) were sonicated for 30 seconds just prior to addition to assay buffer and assays were initiated by the addition of 100 μM ATP.
Steady-state kinetic parameters for the bi-bi kinase reaction were determined at saturating phospho-acceptor peptide substrate concentration (0.15 mM) by fitting initial velocity data to the Michaelis-Menten equation, v=Vmax[S]/(KM+[S]) where v is the measured initial velocity, Vmax is the maximal enzyme velocity, [S] is the ATP substrate concentration, and KM is the Michealis constant for ATP. Enzyme turnover values (kcat) were calculated according to […], where [E] is the total enzyme concentration. Enzyme inhibition constants (apparent Ki values) were determined by fitting initial velocities at variable inhibitor concentrations to a model for ATP competitive inhibition based on the Morrison equation). Morrison, J. F., Biochim. Biophys Acta 185: 269-286 (1969).

Sequence of Protein Kinase C beta 2 (PKCβII) (P05771 other isoform, or with tags, fused parts or gaps): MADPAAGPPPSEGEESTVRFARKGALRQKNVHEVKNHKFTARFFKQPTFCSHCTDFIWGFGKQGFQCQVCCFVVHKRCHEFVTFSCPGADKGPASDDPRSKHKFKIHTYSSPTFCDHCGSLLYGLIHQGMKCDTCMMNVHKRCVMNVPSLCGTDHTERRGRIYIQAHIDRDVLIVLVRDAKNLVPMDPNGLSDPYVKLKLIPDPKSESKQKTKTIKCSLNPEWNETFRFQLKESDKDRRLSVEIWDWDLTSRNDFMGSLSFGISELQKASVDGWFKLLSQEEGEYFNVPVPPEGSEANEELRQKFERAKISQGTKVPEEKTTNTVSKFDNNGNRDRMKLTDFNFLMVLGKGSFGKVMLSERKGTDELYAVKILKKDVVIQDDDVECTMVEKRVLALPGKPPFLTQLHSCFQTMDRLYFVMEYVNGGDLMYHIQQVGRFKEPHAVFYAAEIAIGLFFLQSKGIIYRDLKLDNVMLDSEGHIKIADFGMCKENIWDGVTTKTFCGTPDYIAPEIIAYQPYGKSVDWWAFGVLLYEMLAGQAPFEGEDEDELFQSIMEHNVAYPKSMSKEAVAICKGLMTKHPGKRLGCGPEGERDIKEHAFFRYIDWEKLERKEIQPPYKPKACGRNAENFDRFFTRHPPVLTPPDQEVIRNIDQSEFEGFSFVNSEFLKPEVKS

| pKi | SMILES |
| --- | --- |
| 8.95 | CCOc1ncc(F)c(Nc2n[nH]c3c2CN(C(=O)N2C[C@@H](C)N(C)C[C@@H]2C)C3(C)C)n1 [Example K1, N-(2-ethoxy-5-fluoropyrimidin-4-yl)-6,6-dimethyl-5-{[(2S,5R)-2,4,5-trimethylpiperazin-1-yl]carbonyl}-1,4,5,6-tetrahydropyrrolo[3,4-c]pyrazol-3-amine] |
| 8.68 | CCOc1ncc(F)c(Nc2n[nH]c3c2CN(C(=O)N2C[C@@H](C)N(CC)C[C@@H]2C)C3(C)C)n1 [Example K2, N-(2-ethoxy-5-fluoropyrimidin-4-yl)-6,6-dimethyl-5-{[4-ethyl(2S,5R)-2,5-dimethylpiperazin-1-yl]carbonyl}-1,4,5,6-tetrahydropyrrolo[3,4-c]pyrazol-3-amine] |
| 9.04 | CCOc1ncc(F)c(Nc2n[nH]c3c2CN(C(=O)N2CC(C)(C)N(C)C[C@@H]2C)C3(C)C)n1 [Example K3, N-(2-ethoxy-5-fluoropyrimidin-4-yl)-6,6-dimethyl-5-{[(2S)-2,4,5,5-tetramethylpiperazin-1-yl]carbonyl}-1,4,5,6-tetrahydropyrrolo[3,4-c]pyrazol-3-amine] |
| 8.48 | CCOc1ncc(F)c(Nc2n[nH]c3c2CN(C(=O)N2C[C@@H](C)N(CCOC)C[C@@H]2C)C3(C)C)n1 [Example K4, N-(2-ethoxy-5-fluoropyrimidin-4-yl)-5-{[(2S,5R)-4-(2-methoxyethyl)-2,5-dimethylpiperazin-1-yl]carbonyl}-6,6-dimethyl-1,4,5,6-tetrahydropyrrolo[3,4-c]pyrazol-3-amine] |
| 9.17 | CCOc1ncc(F)c(Nc2n[nH]c3c2CN(C(=O)N2C[C@@H](C)N(CCCOC)C[C@@H]2C)C3(C)C)n1 [Example K5] |
| 9.42 | COCCCN1C[C@H](C)N(C(=O)N2Cc3c(Nc4nc(OCC(F)(F)F)ncc4F)n[nH]c3C2(C)C)C[C@H]1C [Example K6, N-[5-fluoro-2-(2,2,2-trifluoroethoxy)pyrimidin-4-yl]-5-{[(2S,5R)-4-(3-methoxypropyl)-2,5-dimethylpiperazin-1-yl]carbonyl}-6,6-dimethyl-1,4,5,6-tetrahydropyrrolo[3,4-c]pyrazol-3-amine] |
| 9.78 | C[C@@H]1CN(C(=O)N2Cc3c(Nc4nc(OCC(F)(F)F)ncc4F)n[nH]c3C2(C)C)[C@@H](C)CN1C [Example K7, N-[5-fluoro-2-(2,2,2-trifluoroethoxy)pyrimidin-4-yl]-6,6-dimethyl-5-{[(2S,5R)-2,4,5-trimethylpiperazin-1-yl]carbonyl}-1,4,5,6-tetrahydropyrrolo[3,4-c]pyrazol-3-amine] |
| 9.74 | C[C@H]1CN(C)C(C)(C)CN1C(=O)N1Cc2c(Nc3nc(OCC(F)(F)F)ncc3F)n[nH]c2C1(C)C [Example K8, N-[5-fluoro-2-(2,2,2-trifluoroethoxy)pyrimidin-4-yl]-6,6-dimethyl-5-{[(2S)-2,4,5,5-tetramethylpiperazin-1-yl]carbonyl}-1,4,5,6-tetrahydropyrrolo[3,4-c]pyrazol-3-amine] |

Continued, compound first:

| SMILES | pKi |
| --- | --- |
| Cc1cccc(Nc2n[nH]c3c2CN(C(=O)C2(F)CCN(C)CC2)C3(C)C)n1 [Example J2, 5-[(4-fluoro-1-methylpiperidin-4-yl)carbonyl]-6,6-dimethyl-N-(6-methylpyridin-2-yl)-1,4,5,6-tetrahydropyrrolo[3,4-c]pyrazol-3-amine] | 7.22 |
| Cc1ccc(F)c(Nc2n[nH]c3c2CN(C(=O)N2C[C@@H](C)N(C)C[C@@H]2C)C3(C)C)n1 [Example J3, N-(3-fluoro-6-methylpyridin-2-yl)-6,6-dimethyl-5-{[(2S,5R)-2,4,5-trimethylpiperazin-1-yl]carbonyl}-1,4,5,6-tetrahydropyrrolo[3,4-c]pyrazol-3-amine] | 8.58 |
| Cc1ccc(F)c(Nc2n[nH]c3c2CN(C(=O)N2C[C@]4(C)CCCN4C[C@@H]2C)C3(C)C)n1 [Example J4, 5-{[(3S,8aS)-3,8a-dimethylhexahydropyrrolo[1,2-a]pyrazin-2(1H)-yl]carbonyl}-N-(3-fluoro-6-methylpyridin-2-yl)-6,6-dimethyl-1,4,5,6-tetrahydropyrrolo[3,4-c]pyrazol-3-amine] | 8.06 |
| Cc1ccc(F)c(Nc2n[nH]c3c2CN(C(=O)N2C[C@@H]4CCCN4C[C@@H]2C)C3(C)C)n1 [Example J5, N-(3-fluoro-6-methylpyridin-2-yl)-6,6-dimethyl-5-{[(3S,8aS)-3-methylhexahydropyrrolo[1,2-a]pyrazin-2(1H)-yl]carbonyl}-1,4,5,6-tetrahydropyrrolo[3,4-c]pyrazol-3-amine] | 8.19 |
| Cc1ccc(F)c(Nc2n[nH]c3c2CN(C(=O)N2CC(C)(C)N(C)C[C@@H]2C)C3(C)C)n1 [Example J6, N-(3-fluoro-6-methylpyridin-2-yl)-6,6-dimethyl-5-{[(2S)-2,4,5,5-tetramethylpiperazin-1-yl]carbonyl}-1,4,5,6-tetrahydropyrrolo[3,4-c]pyrazol-3-amine] | 8.93 |
| Cc1cccc(Nc2n[nH]c3c2CN(C(=O)N2C[C@]4(C)CCCN4C[C@@H]2C)C3(C)C)n1 [Example J7, 5-{[(3S,8aS)-3,8a-dimethylhexahydropyrrolo[1,2-a]pyrazin-2(1H)-yl]carbonyl}-6,6-dimethyl-N-(6-methylpyridin-2-yl)-1,4,5,6-tetrahydropyrrolo[3,4-c]pyrazol-3-amine] | 6.95 |
| Cc1cccc(Nc2n[nH]c3c2CN(C(=O)N2C[C@@H](C)N(C)C[C@@H]2C)C3(C)C)n1 [Example J8, 6,6-dimethyl-N-(6-methylpyridin-2-yl)-5-{[(2S,5R)-2,4,5-trimethylpiperazin-1-yl]carbonyl}-1,4,5,6-tetrahydropyrrolo[3,4-c]pyrazol-3-amine] | 7.49 |
| COCc1ncc(F)c(Nc2n[nH]c3c2CN(C(=O)N2CC(C)(C)N(C)C[C@@H]2C)C3(C)C)n1 [Example J9, N-[5-fluoro-2-(methoxymethyl)pyrimidin-4-yl]-6,6-dimethyl-5-{[(2S)-2,4,5,5-tetramethylpiperazin-1-yl]carbonyl}-1,4,5,6-tetrahydropyrrolo[3,4-c]pyrazol-3-amine] | 8.68 |
| CCc1ncc(F)c(Nc2n[nH]c3c2CN(C(=O)N2C[C@@H](C)N(CC4CCOCC4)C[C@@H]2C)C3(C)C)n1 [Example J10, 5-{[(2S,5R)-2,5-dimethyl-4-(tetrahydro-2H-pyran-4-ylmethyl)piperazin-1-yl]carbonyl}-N-(2-ethyl-5-fluoropyrimidin-4-yl)-6,6-dimethyl-1,4,5,6-tetrahydropyrrolo[3,4-c]pyrazol-3-amine] | > 8.00 |
| COc1ccnc(Nc2n[nH]c3c2CN(C(=O)N2C[C@@H](C)N(C4CCOCC4)C[C@@H]2C)C3(C)C)n1 [Example J11, 5-{[(2S,5R)-2,5-dimethyl-4-(tetrahydro-2H-pyran-4-yl)piperazin-1-yl]carbonyl}-N-(4-methoxypyrimidin-2-yl)-6,6-dimethyl-1,4,5,6-tetrahydropyrrolo[3,4-c]pyrazol-3-amine] | > 8.00 |
| Cc1ccnc(Nc2n[nH]c3c2CN(C(=O)N2C[C@@H](C)N(C4CCOCC4)C[C@@H]2C)C3(C)C)n1 [Example J12, 5-{[(2S,5R)-2,5-dimethyl-4-(tetrahydro-2H-pyran-4-yl)piperazin-1-yl]carbonyl}-6,6-dimethyl-N-(4-methylpyrimidin-2-yl)-1,4,5,6-tetrahydropyrrolo[3,4-c]pyrazol-3-amine] | > 8.00 |
| C[C@@H]1CN(C(=O)N2Cc3c(Nc4nccc(C(F)(F)F)n4)n[nH]c3C2(C)C)[C@@H](C)CN1C1CCOCC1 [Example J13] | > 8.00 |
| COc1ccnc(Nc2n[nH]c3c2CN(C(=O)N2C[C@@H](C)N(CC4CCOCC4)C[C@@H]2C)C3(C)C)n1 [Example J14, 5-{[(2S,5R)-2,5-dimethyl-4-(tetrahydro-2H-pyran-4-ylmethyl)piperazin-1-yl]carbonyl}-N-(4-methoxypyrimidin-2-yl)-6,6-dimethyl-1,4,5,6-tetrahydropyrrolo[3,4-c]pyrazol-3-amine] | 7.72 |
| Cc1ccnc(Nc2n[nH]c3c2CN(C(=O)N2C[C@@H](C)N(CC4CCOCC4)C[C@@H]2C)C3(C)C)n1 [Example J15, 5-{[(2S,5R)-2,5-dimethyl-4-(tetrahydro-2H-pyran-4-ylmethyl)piperazin-1-yl]carbonyl}-6,6-dimethyl-N-(4-methylpyrimidin-2-yl)-1,4,5,6-tetrahydropyrrolo[3,4-c]pyrazol-3-amine] | > 8.00 |
| Cc1cc(C)nc(Nc2n[nH]c3c2CN(C(=O)N2C[C@@H](C)N(CC4CCOCC4)C[C@@H]2C)C3(C)C)n1 [Example J16, N-(4,6-dimethylpyrimidin-2-yl)-5-{[(2S,5R)-2,5-dimethyl-4-(tetrahydro-2H-pyran-4-ylmethyl)piperazin-1-yl]carbonyl}-6,6-dimethyl-1,4,5,6-tetrahydropyrrolo[3,4-c]pyrazol-3-amine] | 7.95 |
